# In publication PMC6100385, “Irinotecan and Δ^9-Tetrahydrocannabinol Interactions in Rat Liver: A Preliminary Evaluation Using Biochemical and Genotoxicity Markers” (Molecules : A Journal of Synthetic Chemistry and Natural …, 2018):
# Key:
# male Wistar rats [1] = assay: Serum alanine aminotransferase (ALT) activity; format: in vivo, rat
# Experimental: (§2) Serum biochemical parameters included AST, ALT, bilirubin, ALP, and total protein. These were determined using a chemical analyser (Beckman Coulter AU 480; Brea, CA, USA). Activities of AST, ALT, and ALP were expressed as U/L. The amount of total protein was expressed as g/L. Bilirubin concentration (total bilirubin) was expressed as µmol/L.
# male Wistar rats [2] = assay: Serum bilirubin (total bilirubin); format: in vivo, rat; details: seven days of continuous intake
# Experimental: as §2
# male Wistar rats [3] = assay: Serum markers of liver function, overall; format: in vivo, rat; details: 1-, 3-, 7-day treatments
# Experimental: as §2
# liver of rats [4] = assay: Catalase (CAT) activity in the liver; format: in vivo, rat; details: one day after application, single dose
# Experimental: Catalase activity was measured at 25 °C, pH 7.0, at 240 nm. Enzyme activity was calculated using the molar extinction coefficient ([…]), and expressed as IU/gprotein.
# (§1) Determination of protein concentration was carried out according to the method by Bradford using bovine serum albumin as standard.
# [5] = tested on: hepatocytes of male Wistar rats; assay: Alkaline comet assay, primary DNA damage; format: in vivo, rat
# Experimental: The obtained cellular suspension was immediately used for preparation of agarose microgels.
# To prepare agarose microgels, we used fully frosted precleaned microscope slides (Surgipath®, Cambridgeshire, UK) precoated with 0.6% normal melting point (NMP) agarose. Suspensions of liver cells (V = 10 µL per slide) were mixed with 0.5% low melting point (LMP) agarose, placed on slides and covered with a top layer of 0.5% LMP agarose. The microgels were lysed overnight at 4 °C in a freshly prepared buffer (2.5 mol/L NaCl (Kemika, Zagreb, Croatia), 100 mmol/L Na2EDTA, 10 mmol/L Tris-HCl, 1% Na-laurylsarcosinate, pH = 10) with 1% Triton X-100 and 10% dimethyl sulfoxide (Kemika, Zagreb, Croatia). After lysis, microgels were denatured (20 min) in alkaline denaturation/electrophoresis buffer (300 mM NaOH (Kemika, Zagreb, Croatia) and 1 mM Na2EDTA, pH > 13). Electrophoresis lasted for 20 min, at 4 °C, 25 V, and 300 mA. The microgels were then neutralised using a Tris-HCl buffer (0.4 mol/L; pH = 7.5). Before microscopic analysis, the slides were stained with ethidium bromide (20 µg/mL). They were analysed using an epifluorescence microscope (Olympus BX50, Tokyo, Japan) equipped with appropriate filters, at 200× magnification. The level of DNA damage in individual cells was estimated using Comet Assay IV™ software (Instem-Perceptive Instruments Ltd., Suffolk, Halstead, UK). One well-trained scorer performed all of the comet measurements on the coded/blinded slides. Random fields were selected and the comets were captured at a constant depth of the gel, avoiding edges and occasional dead cells. A total of 200 comets per rat were measured on replicate slides in two independent evaluations (altogether 1000 individual comet measurements per each experimental group were performed). Tail length (presented in micrometres) and tail intensity (i.e., DNA% in tail) were chosen as indicators of DNA damage.
# male Wistar rats [6] = details: THC 7 mg/kg b.w. p.o.; all three timepoints
# Experimental: as §2
# male Wistar rats [7] = details: THC p.o.; days 1 and 3
# Experimental: as §2
# Sprague-Dawley rats = details: 3 mg/kg b.w. i.p. for seven days; cited from earlier work
# [8] = low doses (<5 µg/mL or <5 µmol/L, or <1 joint/day); cited from earlier work
# [9] = cited from earlier work
# male Wistar rats [10] = assay: Survival and clinical signs of intoxication; format: in vivo, rat; details: IRI 100 mg/kg b.w. i.p. once; own observations same as literature
# Experimental: A total of 60 rats were randomly assigned to the following four groups. Group 1: control rats were given the same daily volume of the vehicle sesame oil as the THC-treated group. […] Group 3: rats orally administered THC dissolved in sesame oil at a daily dose of 7 mg/kg b.w. for one, three and seven days, respectively. […] Each group comprised 5 animals with minimal weight variation (300 g ± 10%).
# Rats had free access to food and drinking water. Their body weights were regularly monitored and the doses of THC were adjusted accordingly. Survival and clinical signs of intoxication were also evaluated on a daily basis.
# liver of rats [11] = assay: Lipid peroxidation (TBARS) in the liver; format: in vivo, rat
# Experimental: The concentration of thiobarbituric reactive substances (TBARS), as a measure of lipid peroxidation, was determined using a modification of the method by Drury et al.. Butylated hydroxytoluene (BHT; 5 µL; 0.2% w/v) and phosphoric acid (750 µL; 1% v/v) were added to 50 µL samples. After mixing, 250 µL 0.6% (w/w) thiobarbituric acid (TBA) and 445 µL H2O were added and the reaction mixture was incubated in a water bath at 90 °C for 30 min. The mixture was cooled and absorbance was measured at 532 nm on a Shimadzu UV Probe Spectrophotometer (Kyoto, Japan). The concentration of TBARS was calculated using standard curves of increasing 1,1,3,3-tetramethoxypropane concentrations, and expressed as µmol/L.
# liver of rats [12] = assay: Superoxide dismutase (SOD) activity in the liver; format: in vivo, rat; details: after 3 days
# Experimental: Total superoxide dismutase (SOD) activity was measured spectrophotometrically according to Flohé and Ötting. The reduction rate of cytochrome c by superoxide radicals was monitored at 550 nm utilizing the xanthine–xanthine oxidase system as the source for O2^•−. SOD competed for the superoxide and decreased the reduction rate of cytochrome c. One unit of SOD was defined as the amount of enzyme that inhibits the rate of cytochrome c reduction by 50%. Enzyme activity was expressed as IU/gprotein.
# as §1
# rats = details: cited from earlier work
# humans = tested on: humans; parameters: method as in PMID 11489791; details: cited from earlier work
# CDF1 mice = tested on: CDF1 mice; parameters: method as in PMID 9247609; details: i.p. at 100 mg/kg for six days; cited from earlier work
# liver cells of rats = tested on: liver cells of rats; parameters: method as in PMID 19663821; details: 24 h and 72 h; eleven-fold lower IRI dose than tested here; cited from earlier work
structure (smiles),measurement,setting,value
"CCCCCc1cc(O)c2c(c1)OC(C)(C)C1CCC(C)=CC21 (stereo not drawn) [THC, Δ^9-tetrahydrocannabinol]",ALT activity in serum vs IRI-treated rats,male Wistar rats [1]; 3-day exposure,statistically significant increase
same,ALT level in serum,"male Wistar rats [1]; THC p.o., day 3",somewhat increased
same,serum bilirubin level vs single IRI and combined treatment,male Wistar rats [2],higher
same,"liver function / serum liver markers, overall",male Wistar rats [3],affected ALP and AP levels more than single IRI
same,CAT activity in liver vs control and IRI-treated rats,liver of rats [4],significantly increased
same,"comet tail length, mean","[5]; continuous 7-day oral exposure, compared to shorter treatments",significantly higher mean value of tail length
same,risk for genotoxicity,"[5]; shorter exposures (1-, 3-day) to THC p.o.",not associated with a significant risk for genotoxicity
same,"AST activity in serum, trend",male Wistar rats [6],trend towards increased AST activity
same,ALP level in serum,male Wistar rats [7],increased
same,lipid peroxidation in the liver,Sprague-Dawley rats,slightly elevated
same,liver CAT activity vs control rats,Sprague-Dawley rats,decreased
same,liver SOD activity vs control rats,Sprague-Dawley rats,non-significant decrease
same,genotoxic adverse outcomes,[8],usually not associated with genotoxic adverse outcomes
"CCc1c2c(nc3ccc(OC(=O)N4CCC(N)CC4)cc13)-c1cc3c(c(=O)n1C2)COC(=O)[C@]3(O)CC [NPC, 7-ethyl-10-[4-(1-piperidino)-1-amino]-carbonyloxycamptothecin]",cytotoxic potential,[9],significantly lower cytotoxic potential
"CCc1c2c(nc3ccc(OC(=O)N4CCC(NCCCCC(=O)O)CC4)cc13)-c1cc3c(c(=O)n1C2)COC(=O)C3(O)CC (stereo not drawn) [APC, 7-ethyl-10-[4-N-(5-aminopentanoic acid)-1-piperidino]carbonyloxycamptothecin]",cytotoxic potential,[9],significantly lower cytotoxic potential
"CCc1c2c(nc3ccc(OC(=O)N4CCC(N5CCCCC5)CC4)cc13)-c1cc3c(c(=O)n1C2)COC(=O)[C@]3(O)CC [IRI, 7-ethyl-10-[4-(1-piperidino)-1-piperidino] carbonyloxycamptothecin]",severe diarrhoea and gastrointestinal toxicity,male Wistar rats [10],did not result with severe diarrhoea and gastrointestinal toxicity
same,"TBARS concentration in liver, IRI-treated vs control",liver of rats [11]; 3- and 7-day timepoints,not significant
same,"TBARS concentration in liver (lipid peroxidation), rank among groups",liver of rats [11]; one day following application,highest level of lipid peroxidation
same,SOD activity in liver vs control,liver of rats [12],significantly higher
same,"comet tail intensity, mean, vs control and THC groups",[5]; 1-day treatment,significantly increased
same,"comet tail length, mean, vs control and THC groups",[5]; 1-day treatment,significantly increased
same,"comet tail intensity, mean, vs control and THC groups",[5]; 3-day treatment,significantly increased
same,"comet tail length, mean, vs control and THC groups",[5]; 3-day treatment,significantly increased
same,"comet tail intensity, mean, rank among groups",[5]; 7-day treatment,highest mean value
same,"DNA damage, rank among groups",[5]; all timepoints,highest DNA damage
same,"primary DNA damage, 1-day vs 3 days",[5]; single IRI,lower than after 3 days
same,level of DNA damage with prolonged treatment duration,"[5]; single IRI, seven days",slightly diminished
same,maximum tolerated dose for rats,rats; per week,100 mg/kg b.w.
same,mortality and gastrointestinal mucositis,rats; single dose of 200 mg/kg,"low mortality, but caused reproducible gastrointestinal mucositis"
same,maximal and recommended tolerated human doses,humans,10–30 mg/m^2/day
same,lipid peroxidation in the liver,CDF1 mice,increases of IRI-potentiated lipid peroxidation
same,primary DNA damage in liver cells,liver cells of rats,significant increase
CCc1c2c(nc3ccc(O)cc13)-c1cc3c(c(=O)n1C2)COC(=O)[C@]3(O)CC [SN-38],cytotoxicity relative to the parent compound (IRI),[9],100–1000 fold
